Laboratory results: patent publication US10329304B2, “Compounds and methods for inhibition of hedgehog signaling and phosphodiesterase” (Vanderbilt University, priority 2014, dated 2019)
Like-named read-outs stand apart in the source and are kept apart here.

What was measured:
[1] = system: Hedgehog signaling (Gli-Luc reporter); assay: Hh Gli-Luciferase reporter assay in Shh-Light2 cells; type: cell-based, mouse; conditions: for EC50: Mus musculus, Shh Light2
Experimental: For Hh signaling assays, Shh-Light2 cells stably transfected with Gli-Luciferase reporter construct were used along with Shh-conditioned media, as previously described^7. Alternatively, 3 μM purmorphamine or 20 nM Smoothened agonist (SAG) (Santa Cruz Biotechnology, Santa Cruz, Calif.) was used to induce Hh signaling. Reporter cells were seeded in 96-well plates and incubated overnight with the various concentrations of eggmanone and Shh-conditioned media. To assess the effects of overexpression of Gli-2, PDE4D3 and DN-PDE4D3 on Hh signaling, mammalian expression vectors containing these constructs were transfected into Shh-Light2 cells in 96-well plates using Fugene6 (Roche), according to manufacturer's instructions. The transfected or Shh-stimulated cells were incubated overnight with the various concentrations of compound. The cells were then lysed, and cell extracts were subjected to Steady-Glo luciferase assay (Promega) according to manufacturer's instructions. The results were normalized to cell titer, as determined using Cell Titer-Glo luminescence assay (Promega).

PDE4D = PDE4D (Homo sapiens, UniProt Q08499); assay: PDE4 inhibition assay (PDE4D IC50); type: biochemical
Experimental: (§1) In vitro PDE profiling and dose-response assays were performed by BPS Biosciences (San Diego, Calif.). Kinetic Mechanism of inhibition studies were conducted by Millipore (St. Louis, Mo.). In brief, the PDE assay measures fluorescent polarization of FAM-AMP as FAM-cAMP is converted to FAM-AMP by PDE), the binding agent.
(§2) A series of dilutions of the test compound were prepared with 10% DMSO in assay buffer and 5 μl of the dilution was added to a 50 μl reaction so that the final concentration of DMSO is 1% in all of reactions. All of the PDE enzymatic reactions were conducted in duplicate at room temperature for 60 minutes in a 50 μl mixture containing PDE assay buffer (10 mM Tris-HCl, pH7.4, 10 mM MaCl2, 0.05% Tween 20), 100 nM FAM-cAMP, a PDE enzyme and a test compound.
(§3) After the enzymatic reaction, 100 μl of a binding solution (1:100 dilution of the binding agent, which contains the nano beads that recognize FAM-AMP, with the binding agent diluent) was added to each reaction and the reaction was performed at room temperature for 60 minutes. Fluorescence intensity was measured at an excitation of 485 nm and an emission of 528 nm using a Tecan Infinite M1000 microplate reader. Assays done by Millipore were conducted similarly with changes noted below:
Hedgehog signaling inhibition and PDE4 inhibition of various compounds disclosed herein was assayed as described herein above.

[2] = system: Hedgehog signaling (TM3-Gli-Luc); assay: TM3-Gli-Luc luciferase reporter assay stimulated with 20 nM SAG; type: cell-based
Experimental: TM3-Gli-Luc cells were maintained on sterile 0.1% gelatin (from porcine skin, Type A, prepared in MilliQ water, autoclaved, then sterile-filtered) in 1:1 Dulbecco's Modified Eagle Medium (DMEM)/F12 supplemented with 5% horse serum, 2.5% fetal bovine serum (FBS), and 15 mM HEPES, hereafter referred to as TM3 Culture Medium. For small molecule evaluation, TM3-Gli-Luc cells were assayed on 0.1% gelatin in DMEM/F12 supplemented with 2.5% FBS and 15 mM HEPES, hereafter referred to as TM3Luc Medium. Sufu^−/− cells were maintained in DMEM supplemented with 4.5 g/L D-glucose, L-glutamine, 25 mM HEPES, and 10% FBS, hereafter referred to as D10 FBS. For small molecule evaluation, Sufu^−/− cells were assayed in DMEM supplemented with 4.5 g/L D-glucose, L-glutamine, 25 mM HEPES, and 0.5% FBS, hereafter referred to as D0.5 FBS. All cells were cultured at 37° C. with a 5% CO2 atmosphere.
On the day of cell plating, 96-well plates were coated with 50 μL/well of sterile 0.1% gelatin for 5 minutes then aspirated and replaced with 50 μL/well of TM3 Culture Medium. TM3-Gli-Luc cells were seeded at a density of 5,000 cells/well in TM3 Culture Medium and incubated for 24 hours. A master mix of 20 nM SAG in TM3Luc Medium was prepared, and small molecule solutions were prepared by adding the desired amount of compound from 10 mM DMSO stock to TM3Luc Medium containing 20 nM SAG. Negative control was prepared by adding an equi-volume amount of DMSO as compared to small molecule treated conditions to TM3Luc Medium not containing SAG. Cell plating medium was aspirated and replaced with 100 μL/well of prepared small molecule-containing media, and plates were incubated for 48 hours before proceeding to luciferase activity and cell viability reading.
TM3Luc Medium from compound treated plates was aspirated and replaced with 82 μL/well of Glo Lysis Buffer (Promega, Madison, Wis., USA), and plates were shaken at 300 rpm and room temperature for 12 minutes. Lysate was split between two white 96-well plates, 45 μL/well and 25 μL/well for luciferase reading and cell viability respectively. For luciferase activity monitoring, 45 μL/well of Steady Glo (Promega, Madison, Wis., USA) was added to 45 μL/well of cell lysate, incubated at room temperature for 5 minutes, then luminescence was measured on a Turner Biosystems Modulus Microplate Reader (Sunnyvale, Calif., USA) with an integration time of 0.5 seconds. For cell viability measurement, 25 μL/well of Cell Titer Glo (Promega, Madison, Wis., USA) (prepared by 1:10 dilution with Glo Lysis Buffer) was added to 25 μL/well of cell lysate, incubated at room temperature for 5 minutes, then luminescence was measured as above.
Luciferase activity data (Steady Glo) was divided by corresponding cell viability data (Cell Titer Glo) to arrive at a live cell number-normalized luciferase activity reading. The average of negative control data (DMSO treated) was subtracted from all wells, and percent activity was calculated by dividing all wells by the positive control (SAG treated) average. […] At least two independent assays tested on separate days were averaged to provide EC50±standard error of the mean.

[3] = Lipophilic efficiency (LipE = pEC50 − cLogP) and cLogP
Experimental: Therefore, we prioritized phenotypic analog evaluation in the Gli-responsive luciferase reporter line TM3-Gli-Luc stimulated with 20 nM Smo agonist (SAG) while concurrently monitoring non-specific cellular toxicity. Additionally, lipophilic efficiency (LipE), a concurrent readout of a compound's potency (pEC50) and lipophilicity (cLogP) derived by subtracting the latter from the former, was utilized to optimize solubility properties (Table 12B), allowing for straightforward tracking of compounds with improvements in both parameters.

PDE4D3 = target: T1, PDE4D3 (Homo sapiens, UniProt Q08499); assay: In vitro PDE assay; type: biochemical
T1 construct: purchased BPS Biosciences (San Diego, Calif.); kinetic studies by Millipore (St. Louis, Mo.)
T1 sequence (Q08499 1-673 isoform Q08499-2): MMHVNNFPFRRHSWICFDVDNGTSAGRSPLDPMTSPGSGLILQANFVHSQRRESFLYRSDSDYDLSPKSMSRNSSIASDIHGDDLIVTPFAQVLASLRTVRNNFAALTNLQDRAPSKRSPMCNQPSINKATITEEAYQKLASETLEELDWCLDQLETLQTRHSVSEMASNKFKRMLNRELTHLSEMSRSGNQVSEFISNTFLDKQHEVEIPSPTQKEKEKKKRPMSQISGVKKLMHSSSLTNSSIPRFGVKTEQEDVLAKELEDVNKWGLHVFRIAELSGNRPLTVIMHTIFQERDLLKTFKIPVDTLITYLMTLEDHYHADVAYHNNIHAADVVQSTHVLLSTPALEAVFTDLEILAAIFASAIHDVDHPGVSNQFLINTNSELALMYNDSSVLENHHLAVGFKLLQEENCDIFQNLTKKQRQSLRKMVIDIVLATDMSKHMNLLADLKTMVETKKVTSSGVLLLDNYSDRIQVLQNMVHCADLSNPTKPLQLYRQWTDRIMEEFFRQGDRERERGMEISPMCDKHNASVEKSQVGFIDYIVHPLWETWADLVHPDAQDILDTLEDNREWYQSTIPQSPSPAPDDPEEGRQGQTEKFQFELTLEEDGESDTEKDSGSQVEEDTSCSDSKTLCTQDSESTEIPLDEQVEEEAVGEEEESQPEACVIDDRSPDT
Experimental: as §1, §2
as §3, with “below: […]” for “below:”

Gli1 mRNA = assay: Hh % Inh.: SAG-induced Gli1 expression in C3H10T½ cells (qPCR); type: cell-based; conditions: Mus musculus, C3H 10T1/2, SAG-induced (100 nM), 24 hours
Experimental: Compounds are dosed from 10 mM DMSO stock solutions, and mRNA is isolated after 24 hours of compound treatment. mRNA is reverse transcribed to produce cDNA which is quantified by quantitative polymerase chain reaction (qPCR) in triplicate and levels are normalized to GAPDH levels. Data is presented as percent inhibition compared to positive control (SAG).

[4] = Table 8, read-out: Hh Inhibition Assay (EC50)
[5] = Table 8, read-out: PDE4 Inhibition Assay (IC50)
[6] = TM3-Gli-Luc reporter line stimulated with 20 nM SAG, mean ± SEM, Table 13, read-out: TM3-Gli-Luc EC50
[7] = calculated as pEC50 - cLogP (Molinspiration Cheminformatics), Table 13
[8] = 20 nM SAG, mean ± standard error of the mean, read-out: TM3-Gli-Luc EC50
[9] = Calculated as pEC50 - cLogP, Molinspiration Cheminformatics
[10] = Table 9B, read-out: Shh Light2 Luc EC50

Row | Compound | EC50 [1, 4] [µM] | IC50 (PDE4D; [5]) [µM] | further results
1 | C=C(C)Cn1c(SCC(=O)c2ccccc2)nc2sc3c(c2c1=O)CCCC3 [Formula (3)] | 3 | 1.27 | –
2 | C=C(C)Cn1c(SCC(=O)c2ccncc2)nc2sc3c(c2c1=O)CCCC3 [Formula (11)] | 10 | 16 | –
3 | C=C(C)Cn1c(SCC(=O)c2cccs2)nccc1=O [Formula 19a] | – | – | EC50 [2, 6]: 0.931 ± 0.11 µM; LipE [3, 7]: 2.06
4 | C=CCn1c(SCC(=O)N2CCCC[C@H]2C)nc2sc3c(c2c1=O)CCCC3 [Formula (6)] | 5 | 7.6 | –
5 | C=C(C)Cn1c(SCC(=O)c2cccs2)nc2sc3c(c2c1=O)CCCC3 [Formula 3] | – | – | IC50 (PDE4D; mean ± SEM, normalized to DMSO, read-out: PDE4D IC50): 0.38 ± 0.02 µM; EC50 [2, 8]: 1.34 ± 0.002 µM; EC50 ([2]; TM3-Gli-Luc reporter line stimulated with 20 nM SAG, mean ± SEM, Table 14, read-out: TM3-Gli-Luc EC50): 1.34 ± 0.002 µM; LipE [3, 9]: 0.73; LipE ([3]; pEC50 - cLogP, Table 14): 0.73
6 | C=CCn1c(SCC(=O)N2CCN(C)CC2)nc2sc3c(c2c1=O)CCCC3 [Formula (8)] | 10 | 2.08 | –
7 | C=C(C)Cn1c(SCC(=O)c2cccs2)nc2sc3c(c2c1=O)CCNC3 [Formula 10a] | – | – | EC50 [2, 8]: 6.4 ± 0.33 µM; LipE [3, 9]: 1.45
8 | C=CCn1c(SCC(=O)c2nccs2)nc2sc3c(c2c1=O)CCCC3 [Formula (10)] | – | 27 | Hh Inhibition Assay (EC50, μM) ([1]; Table 8): Inactive
9 | C=C(C)Cn1c(SCC(=O)N2CCOCC2)nc2sc3c(c2c1=O)CCCC3 [Formula (13)] | 5 to 20 | 3.9 | –
10 | O=C(CSc1nccc(=O)n1C1CC1)c1ccccc1 [Formula 14c] | – | – | Hh inhibitory activity / potency in words ([2]; 20 nM SAG): potency improvements over EGM1; EC50 [2, 6]: 1.16 ± 0.39 µM; LipE [3, 7]: 2.46
11 | CCn1c(SCC(=O)c2ccc(Cl)cc2)nc2sc3c(c2c1=O)CCC3 [HI113] | – | – | EC50 [1, 10]: > 20 µM; IC50 (PDE4D3; Table 9B): 4.1 µM
12 | CS(=O)(=O)c1ccc(C(=O)Nc2ccc(Cl)c(-c3ccccn3)c2)c(Cl)c1 [Vismodegib, reference compound] | – | – | Hh inhibitory activity / potency in words ([2]; 20 nM SAG): displayed expected potency; Hh inhibitory activity / potency in words ([2]; 20 nM SAG, listed as 1): low-nanomolar; EC50 [2, 8]: 0.013 ± 0.004 µM; LipE [3, 9]: 4.33
13 | C=CCn1c(SCC(=O)c2ccncc2)nc2sc3c(c2c1=O)CCCC3 [Formula (12)] | 15 | 8.2 | –
14 | C=CCn1c(SCC(=O)c2ccc(OC)cc2)nc2sc3c(c2c1=O)CCCC3 [HI798] | – | – | EC50 [1, 10]: > 10 µM; IC50 (PDE4D3; Table 9B): > 100 µM
15 | C=C(C)Cn1c(SCC(=O)N2CCCC[C@H]2C)nc2sc3c(c2c1=O)CCCC3 [Formula (5)] | 2.5 | 1.2 | –
16 | C=C(C)Cn1c(SCC(=O)c2ccccn2)nc2sc3c(c2c1=O)CCCC3 [Formula (15)] | 15 | 23 | –
17 | C=CCn1c(SCC(=O)N2CCOCC2)nc2sc3c(c2c1=O)CCCC3 [Formula (14)] | – | > 100 | Hh Inhibition Assay (EC50, μM) ([1]; Table 8): Inactive
18 | C=CCn1c(SCC(=O)N2Cc3ccccc3C2)nc2sc3c(c2c1=O)CCCC3 [Formula (18)] | – | > 100 | Hh Inhibition Assay (EC50, μM) ([1]; Table 8): Inactive
19 | C=C(C)Cn1c(SCC(=O)N2CCN(C)CC2)nc2sc3c(c2c1=O)CCCC3 [Formula (7)] | 20 | 8.5 | –
20 | C=C(C)Cn1c(SCC(=O)c2ccc(-c3ccccc3)cc2)nc2sc3c(c2c1=O)CCCC3 [Formula (19)] | – | > 100 | Hh Inhibition Assay (EC50, μM) ([1]; Table 8): Inactive
21 | C=C(C)Cn1c(SCC(=O)c2cccs2)nc2sc3c(c2c1=O)CCCC3 [Formula (1), 3-(2-methylallyl)-2-((2-oxo-2-(thiophen-2-yl)ethyl)thio)-5,6,7,8-tetrahydrobenzo[4,5]thieno[2,3-d]pyrimidine-4(3H)-one] | 1.5 | 0.893 | –
22 | O=C(CSc1nc2sc3c(c2c(=O)n1CC1CC1)CCCC3)c1cccs1 [JEH-3-039-1] | – | – | IC50 (PDE4D3; Table 9A): 1 µM; inhibition at 1 µM (Gli1 mRNA; 1 pM [sic], read-out: C3H10T1/2 qPCR, Gh1 mRNA % Inh., 1 pM): -3.3%; inhibition at 10 µM (Gli1 mRNA; 10 pM [sic], read-out: C3H10T1/2 qPCR, Gh1 mRNA % Inh., 10 pM): 81.6%; EC50 ([2]; Table 9A, read-out: TM3 G8 Luciferase EC 50): 2.96 µM
23 | C=CCn1c(SCC(=O)c2cccs2)nc2sc3c(c2c1=O)CCCC3 [Formula (2)] | – | > 100 | Hh Inhibition Assay (EC50, μM) ([1]; Table 8): Inactive
24 | C=CCn1c(SCC(=O)c2ccccn2)nc2sc3c(c2c1=O)CCCC3 [Formula (16)] | 20 | 25 | –
25 | C=C(C)Cn1c(SCC(=O)c2nccs2)nc2sc3c(c2c1=O)CCCC3 [Formula (9)] | 7.5 | 6.4 | –
26 | C=C(C)Cn1c(SCC(=O)N2Cc3ccccc3C2)nc2sc3c(c2c1=O)CCCC3 [Formula (17)] | – | 46 | Hh Inhibition Assay (EC50, μM) ([1]; Table 8): Inactive
